Where two headings read alike, the source gives them in different places.
Legend:
[1] = system: A375 cells; settings: cited from earlier work
[2] = system: A375 xenograft; test: Biomarker levels in A375 control melanoma xenograft tumor extracts (MSD multiplex immunoassay); format: in vivo, mice
Description: (§1) A panel of biomarkers was measured in Melanoma and RCC xenograft tissue extracts from mice, described in Table 4. Xenografts were generated using the listed melanoma and RCC cell lines, and tumors harvested and extracted following the indicated treatments. SKMEL5 cells were used with or without transfection to express constitutively active GSK3β. A375 cells were used with or without transfection to express GSK3β specific shRNA under a doxycycline-controlled promoter.
(§2) Multiplex immunoassay kits were used for detection of total and/or phosphorylated biomarkers (supplied by Meso Scale Discovery, a division of Meso Scale Diagnostics, LLC, Rockville, Md.). Levels of each biomarker were determined by calibration of the assays with were either purified calibrator proteins or using control cell lysates from appropriately treated cultured cell lines (e.g., cells subjected to conditions known to induce or reduce levels of a specific biomarker). Calibration curves were derived by testing serial dilutions of the calibrator lysates or purified proteins. Levels of biomarkers in test samples were back-calculated from the calibration curves and were expressed in terms of wt. (or arbitrary Units for phospho-protein markers) of protein per weight of tissue extract (for purified calibrators) or in terms of weight of crude control lysate protein per well (for lysate calibrators). Titrations of tumor extracts were carried out to determine the linearity of the assay response to sample dilution and to select the sample dilution that would be appropriate to use for each assay panel.
(§3) In general, the assay format was as follows, with minor alterations for specific assay panels as indicated in the assay protocols provided with each assay kit (supplied by Meso Scale Discovery, Rockville, Md.): (1) block MSD MULTI-SPOT® plate for 1 hour with appropriate MSD® blocking solution and wash; (2) add 25 μl assay diluent to each well, if specified; (3) add 25 μl calibrator, or sample (diluted as appropriate) to each well; (4) incubate with shaking for 1-3 hours (time as specified) and wash the well; (5) add 25 μl labeled detection antibody solution to each well; (6) incubate with shaking for 1-2 hours (time as specified) and wash the well; (7) add 150 μl MSD read buffer to each well; (8) read plate immediately on MSD SECTOR® Imager 6000 Reader (supplied by Meso Scale Discovery, Rockville, Md.).
(§4) Tumor tissue extracts were assayed at 5-10 μg/well total protein per well. Samples from each set were assayed on the same plate. […] The signals obtained are not normalized to any housekeeping tissue factor, which may serve to improve animal-to-animal reproducibility, but are normalized to total lysate protein.
(§5) Samples that were not treated with drug are designated as (−) and those treated with drug as (+).

[3] = system: 786-0 xenograft; test: Biomarker levels in 786-0 RCC xenograft tumor extracts (MSD multiplex immunoassay); format: in vivo, mice
Description: as §1, §2, §3, §4, §5

[4] = system: SKMEL5 xenograft; test: Biomarker levels in SKMEL5 wt melanoma xenograft tumor extracts (MSD multiplex immunoassay); format: in vivo, mice
Description: as §1, §2, §3, §4, §5

[5] = system: SKMEL5 (active GSK3beta) xenograft; test: Biomarker levels in SKMEL5 GSK3β+ (active GSK3beta) melanoma xenograft tumor extracts (MSD multiplex immunoassay); format: in vivo, mice
Description: as §1, §2, §3, §4, §5

[6] = system: A375 (GSKshRNA) xenograft; test: Biomarker levels in A375 GSK3β shRNA melanoma xenograft tumor extracts (MSD multiplex immunoassay); format: in vivo, mice
Description: as §1, §2, §3, §4, §5

[7] = system: A375 (GSKshRNA) xenograft + doxycycline; test: Biomarker levels in A375 shRNA + Dox melanoma xenograft tumor extracts (MSD multiplex immunoassay); format: in vivo, mice; settings: A375 shRNA + Dox tumor extract, sorafenib (+), mean
Description: as §1, §2, §3, §4, §5

[8] = system: A498 xenograft; test: Biomarker levels in A498 RCC xenograft tumor extracts (MSD multiplex immunoassay); format: in vivo, mice; settings: A498 tumor extract, sunitinib (+), mean
Description: as §1, §2, §3, §4, §5

[9] = A375 control tumor extract, sorafenib (+), mean
[10] = wild type A375 tumors, sorafenib
[11] = SKMEL5 wt tumor extract, sorafenib (+), mean
[12] = SKMEL5 GSK3β+ tumor extract, sorafenib (+), mean
[13] = A375 GSK3β shRNA tumor extract, sorafenib (+), mean
[14] = 786-0 tumor extract, sunitinib (+), mean

Which results are given for CNC(=O)c1cc(Oc2ccc(NC(=O)Nc3ccc(Cl)c(C(F)(F)F)c3)cc2)ccn1 [sorafenib]?
sorafenib-induced apoptosis ([1]; A375 cells, down-modulation of GSK3β with shRNA): increase sorafenib-induced apoptosis; sorafenib-induced apoptosis ([1]; wild type A375 cells, endogenous active GSK3β): resistance to sorafenib-induced apoptosis; Akt [2, 9]: 5.3 pg/ug pr; GSK3β [2, 9]: 84 pg/ug pr; Rb [2, 9]: 3.45 pg/ug pr; SRFP-1 [2, 9]: 1.30 pg/ug pr; Wnt3A [2, 9]: 23.2 pg/ug pr; c-Met [2, 9]: 0.23 ng/ug pr; dephospho β-catenin [2, 9]: 7.3 Units/ug pr; phospho-Rb [2, 9]: 0.21 Units/ug pr; phospho-cMet [2, 9]: 3.6 pg lys cal/ug pr; phosphor-Akt [2, 9]: 8.5 Units/ug pr; β-catenin [2, 9]: 32 pg/ug pr; change in total Rb levels with treatment ([2]; control A375, sorafenib, most samples at or below detection limits): increase in its levels; change in phospho-GSK3β with treatment [2, 10]: no changes; change in total GSK3β with treatment [2, 10]: no changes; change in VEGF levels with treatment ([3]; 786-0, treated vs untreated): increased levels of VEGF; change in E-cadherin levels with treatment ([4]; SKMEL5 not transfected, sorafenib): no additional effect; change in phospho-Akt levels with treatment ([4]; SKMEL5 tumors, sorafenib): unchanged phospho-Akt levels; change in total Akt levels with treatment ([4]; SKMEL5 tumors, sorafenib): reduced levels of total Akt; Akt [4, 11]: 22.3 pg/ug pr; E-Cadherin [4, 11]: 10.9 pg/ug pr; GSK3β [4, 11]: 162 pg/ug pr; Rb [4, 11]: 0.23 pg/ug pr; SRFP-1 [4, 11]: 0.08 pg/ug pr; VEGF [4, 11]: 0.8 pg/ug pr; Wnt3A [4, 11]: 6.2 pg/ug pr; c-Met [4, 11]: 0.51 ng/ug pr; dephospho β-catenin [4, 11]: 7.4 Units/ug pr; phospho-GSK3β [4, 11]: 44.0 Units/ug pr; phospho-Rb [4, 11]: 0.62 Units/ug pr; phospho-cMet [4, 11]: 15.7 pg lys cal/ug pr; β-catenin [4, 11]: 31 pg/ug pr; change in active (dephospho) β-catenin with treatment ([4]; wt SKMEL5 tumors, sorafenib): decreased; change in GSK3β phosphorylation with treatment ([4]; wt SKMEL5 tumors, sorafenib, total cellular protein): A reduction in GSK3β phosphorylation was not observed; Akt [5, 12]: 32.4 pg/ug pr; E-Cadherin [5, 12]: 0.0 pg/ug pr; GSK3β [5, 12]: 88 pg/ug pr; Rb [5, 12]: 0.63 pg/ug pr; SRFP-1 [5, 12]: 0.22 pg/ug pr; VEGF [5, 12]: 7.2 pg/ug pr; c-Met [5, 12]: 0.59 ng/ug pr; dephospho β-catenin [5, 12]: 12.6 Units/ug pr; phospho-GSK3β [5, 12]: 7.9 Units/ug pr; phospho-Rb [5, 12]: 0.53 Units/ug pr; phospho-cMet [5, 12]: 7.2 pg lys cal/ug pr; phosphor-Akt [5, 12]: 14.3 Units/ug pr; β-catenin [5, 12]: 39 pg/ug pr; change in E-cadherin levels with treatment ([5]; SKMEL5 transfected (active GSK3β), sorafenib): no additional effect; Akt [6, 13]: 2.2 pg/ug pr; GSK3β [6, 13]: 50 pg/ug pr; Rb [6, 13]: 0.96 pg/ug pr; SRFP-1 [6, 13]: 0.35 pg/ug pr; VEGF [6, 13]: 8.5 pg/ug pr; Wnt3A [6, 13]: 12.0 pg/ug pr; c-Met [6, 13]: 0.16 ng/ug pr; dephospho β-catenin [6, 13]: 3.0 Units/ug pr; phospho-GSK3β [6, 13]: 11.1 Units/ug pr; phospho-Rb [6, 13]: 0.13 Units/ug pr; phospho-cMet [6, 13]: 1.8 pg lys cal/ug pr; phosphor-Akt [6, 13]: 5.9 Units/ug pr; β-catenin [6, 13]: 16 pg/ug pr; change in levels of active β-catenin with treatment ([6]; shRNA transfected A375 tumors, sorafenib): reduction in levels of active β-catenin; Akt [7]: 1.6 pg/ug pr; GSK3β [7]: 24 pg/ug pr; Rb [7]: 0.27 pg/ug pr; SRFP-1 [7]: 0.22 pg/ug pr; VEGF [7]: 2.6 pg/ug pr; c-Met [7]: 0.10 ng/ug pr; dephospho β-catenin [7]: 2.9 Units/ug pr; phospho-GSK3β [7]: 6.6 Units/ug pr; phospho-Rb [7]: 0.10 Units/ug pr; phospho-cMet [7]: 1.4 pg lys cal/ug pr; phosphor-Akt [7]: 6.1 Units/ug pr; β-catenin [7]: 21 pg/ug pr

With CCN(CC)CCNC(=O)c1c(C)[nH]c(/C=C2\C(=O)Nc3ccc(F)cc32)c1C [sunitinib] as the compound, how does the Akt [8] read?
The Akt was 6.3 pg/ug pr.

What about the E-Cadherin [8] of the same compound?
The E-Cadherin was 0.0 pg/ug pr.

What about the GSK3β [8] of the same compound?
Its GSK3β is 24 pg/ug pr.

And the Rb [8]?
The Rb was 0.00 pg/ug pr.

And the SRFP-1 [8]?
The SRFP-1 was 0.15 pg/ug pr.

What about the VEGF [8] of the same compound?
Its VEGF is 5.8 pg/ug pr.

And the Wnt3A [8]?
Its Wnt3A is 8.8 pg/ug pr.

And the c-Met [8]?
The c-Met was 1.47 ng/ug pr.

And the “dephospho β-catenin” value [8]?
Its value is 3.4 Units/ug pr.

What about the phospho-GSK3β [8] of the same compound?
Its phospho-GSK3β is 14.2 Units/ug pr.

And the phospho-Rb [8]?
Its phospho-Rb is 0.08 Units/ug pr.

And the phospho-cMet [8]?
The phospho-cMet was 73.6 pg lys cal/ug pr.

What about the phosphor-Akt [8] of the same compound?
Its phosphor-Akt is 59.1 Units/ug pr.

And the β-catenin [8]?
The β-catenin was 34 pg/ug pr.

And the Akt [3, 14]?
Its Akt is 9.3 pg/ug pr.

And the E-Cadherin [3, 14]?
Its E-Cadherin is 0.1 pg/ug pr.

What about the GSK3β [3, 14] of the same compound?
The GSK3β was 61 pg/ug pr.

And the Rb [3, 14]?
Its Rb is 6.48 pg/ug pr.

And the SRFP-1 [3, 14]?
Its SRFP-1 is 0.23 pg/ug pr.

And the VEGF [3, 14]?
Its VEGF is 38.3 pg/ug pr.

What about the Wnt3A [3, 14] of the same compound?
The Wnt3A was 11.8 pg/ug pr.

What about the c-Met [3, 14] of the same compound?
Its c-Met is 1.26 ng/ug pr.

And the “dephospho β-catenin” value [3, 14]?
Its value is 23.3 Units/ug pr.

What about the phospho-GSK3β [3, 14] of the same compound?
Its phospho-GSK3β is 5.9 Units/ug pr.

And the phospho-Rb [3, 14]?
The phospho-Rb was 0.14 Units/ug pr.

What about the phospho-cMet [3, 14] of the same compound?
Its phospho-cMet is 31.5 pg lys cal/ug pr.

What about the phosphor-Akt [3, 14] of the same compound?
Its phosphor-Akt is 78.5 Units/ug pr.

What about the β-catenin [3, 14] of the same compound?
The β-catenin was 82 pg/ug pr.
